≈ marks a conversion by molar mass, not a printed value. Where two headings read alike, the source gives them in different places. Bounds are passed on as bounds.

Format in all cases: cell-based
The subject of data set [1] is human peripheral blood lymphocytes. Description: lymphocyte growth inhibition assay ([3H]-thymidine incorporation) in chemically defined medium. The following applies: for IC50: Homo sapiens, Lymphocyte, read-out: Amount Required to Inhibit Growth by 50%. As to the method:
The medium is also described in the specification above. Various concentrations of amino acids can be used in the medium to determine the effect on growth or growth inhibition.
Human peripheral blood was collected from a group of patients in the clinic. […] Experiments were conducted in 96 well microtite plates. Triplicate samples were run in all experiments. […] For reversal of toxicity CoQ10 was added at a concentration of 0.5 μg/ml, and the patient's own plasma at a concentration of 0.1%. All chemicals were obtained from Sigma Chemical Corporation. […] Cells were then pulsed with 10 μl [^3H]-thymidine (0.29×10^-6M final concentration; specific activity […]). Twenty-four hours later, cells were harvested using an Inotech Cell Harvester. Radioactive incorporation was measured using a Packard Matrix 96 Beta Counter.
For orientation: Uptake of a labelled nucleoside into DNA is a usual measure of proliferation.

Data set [2] has as its system human lymphocytes. Put plainly: lymphocyte response to varied culture medium components. On the procedure: Culture medium suitable for the growth of human lymphocytes is prepared as follows: To 50 ml of medium buffer 72 mg glucose is added, 1 ml amino acid supplement, 1 ml of a 16.5 mg/ml pyruvate: 2.64 mg/ml cysteine solution, 1 ml of a 1.4 mg/ml choline chloride; 1.8 mg/ml inositol solution, 1 ml of the above indicated vitamin supplement, and 1 ml of a 135 μg/ml adenine solution. The pH is adjusted with dilute NaOH to 7.6. Supplements of the following are then added: 1 ml of the antibiotic supplement, 0.5 ml of a 22.2 mg/ml calcium chloride solution, 0.5 ml of a 24 mg/ml magnesium sulfate solution, 1 ml of a solution of 0.278 mg/ml ferrous sulfate in 0.149 mg/ml EDTA. Deionized water is added to a final volume of 100 ml and the medium is filtered through Nalgene membrane filter units for sterilization. After filtration 0.2 ml of a 1 mg/ml sterile solution of phytohemagglutinin (PHA) is added to each 100 ml of media. PHA is obtained from Sigma Chemical Co. in 5 mg quantities and is diluted with sterile, deionized water.
Accordingly, a culture medium suitable for determining the growth or other responses of lymphocytes comprises a serum-free, buffered (pH 7.6) solution in deionized water comprises per liter of solution the following components as described in Table 1:
The components of the culture medium of Table 1 can be varied. In general, effective amounts of the components are used and can vary widely for the various growth assays of the invention and for individual patients. An effective amount of a component, as used herein, is an amount which will obtain a desired response from the patient. […] For most patients and assays the following ranges of components are satisfactory. The precise amounts of the components to provide an effective response can be determined by simple experimentation with the culture medium.
The following is an example of a lymphocyte assay: Previously sterilized 96 well microtiter plates (Corning) are used in this assay procedure. 0.2 milliliters of the culture medium is added to each well. Where necessary, variable supplements up to 10 μl may be added to each tube, or a smaller volume of an appropriately higher concentration of the medium can be added to the tubes and supplements then added to make a final volume of 0.2 ml. The assay is then inoculated with 10 μl of the diluted lymphocyte suspension (22,000 lymphocytes).
Incubation. The plates are incubated for 4 days at 37° C. in a 5% carbon dioxide atmosphere saturated with water vapor. […]
Harvesting. […] The filter papers are dried for 5 minutes in a drying oven at 120° C. and then counted on a Matrix 96 Beta Counter (Packard).

Data set [3] concerns human peripheral blood lymphocytes. Description: reversal of Lipitor (statin) toxicity in the lymphocyte culture assay. The following applies: Lipitor present; CoQ10 0.5 μg/ml, patient's own plasma 0.1%; all subjects. The text has this:
The present invention also provides a composition comprised in the plasma that has the ability to ameliorate the toxicity of metabolic inhibitors such as the statins. […] It is contemplated that the plasma composition may comprise at least one peptide, a polypeptide, a protein or a small molecule which is associated with or bound to at least one peptide, polypeptide, or protein. The plasma composition may also comprise a lipid moiety, and/or a carbohydrate moiety and/or a nucleic acid component. As the plasma composition is heat-labile, it is contemplated to comprise at least one heat-labile peptide, polypeptide, or protein that may additionally be associated with or bound to at least one small molecule which may be a lipid moiety, and/or a carbohydrate moiety and/or a nucleic acid moiety.
The medium used in this study was the same as described previously (See U.S. Pat. No. 4,499,064, herein expressly incorporated by reference) except that the concentration the amino acids used was increased five fold. The medium is also described in the specification above. […]
Human peripheral blood was collected from a group of patients in the clinic. Lymphocytes were isolated as described (Shive, 1986), counted in a Coulter Counter, and inoculated into the medium at a concentration of 110,000 cells per ml. […] Radioactive incorporation was measured using a Packard Matrix 96 Beta Counter. […]

The mark [4] stands for this setting: patients' lymphocytes, 4 days incubation then 24 h [3H]-thymidine pulse.
Where [5] appears, read: at concentrations of up to 0.2 mg/ml.

As to `Cn1c(=O)c2c(ncn2C)n(C)c1=O` [Caffeine], the IC50 in data set [1] (setting [4]) is 77.6 µg/mL (≈ 400 µM). With `CC(=O)C(=O)O` [Pyruvate], the “concentration in culture medium that is toxic to lymphocytes” value in data set [2] (human, 4 days, pH 7.6) turned out to be 1650 µg/mL.

As to `CCC1(c2ccccc2)C(=O)NC(=O)NC1=O` [phenobarbitol], in data set [1], the toxicity in lymphocytes result is on record as “did not show toxicity”. Take `O[C@H]1[C@H](O)[C@@H](O)[C@H](O)[C@@H](O)[C@H]1O` [Inositol]: in data set [2] (Homo sapiens, Lymphocyte, inositol 0.018 mg/l in medium, read-out: lymphocyte response, % of maximal response), the Emax at 0.018 µg/mL is roughly 70%. Further, in data set [2] (Homo sapiens, Lymphocyte, inositol 0.18 mg/l in medium, read-out: lymphocyte response, % of maximal response), the Emax at 0.18 µg/mL is 90 to 100%. As for `CCCC(CCC)C(=O)O` [Valproic Acid (Depakote), Valproic Acid], the IC50 in data set [1] (patients' lymphocytes, 4 days incubation then 24 h [3H]-thymidine pulse, unit printed μg/ml) lay within 0.4 to 1.2 µg/mL (≈ 2.77 to 8.32 µM).

For the compound `NNC(=O)c1ccncc1` [Isoniazid], the IC50 in data set [1] (setting [4]) was 548 µg/mL (≈ 4000 µM). With `CC[C@H](C)C(=O)O[C@H]1C[C@@H](C)C=C2C=C[C@H](C)[C@H](CC[C@@H]3C[C@@H](O)CC(=O)O3)[C@H]21` [Mevacor, Lovastatin], the IC50 in data set [1] (setting [4]) was less than 0.1 µg/mL. As to `CCO` [Ethanol], the IC50 in data set [1] (setting [4]) amounted to 10000 µg/mL (≈ 217000 µM). Regarding `CC(C)c1c(C(=O)Nc2ccccc2)c(-c2ccccc2)c(-c2ccc(F)cc2)n1CC[C@@H](O)C[C@@H](O)CC(=O)O` [Lipitor, Atorvastatin], in data set [1] (setting [4]), the IC50 is less than 0.1 µg/mL.

Take `O=C(O)c1ccccc1O` [Salicylate]: the “Amount Required to Inhibit Growth by 50%” value in data set [1] (setting [4]) was 0.005 mg/mL.

`Cn1c(=O)c2[nH]cnc2n(C)c1=O` [Theophyline]: in data set [1] (setting [4]), the IC50 was 30 µg/mL (≈ 167 µM). Consider `N[C@@H](CCC(=O)O)C(=O)[O-].[Na+]` [Monosodium Glutamate], for which the IC50 in data set [1] amounted to 7500 µg/mL.

`Cc1nnc2n1-c1ccc(Cl)cc1C(c1ccccc1Cl)=NC2` [triazolam]: the toxicity in lymphocytes entry in data set [1] was “did not show toxicity”. Regarding `N[C@H]1C(O)O[C@H](CO)[C@@H](O)[C@@H]1O` (stereo partly drawn) [glucoseamine], the toxicity in lymphocytes result in data set [1] (setting [5]) is on record as “did not show toxicity”.

For the compound `COC1=C(OC)C(=O)C(C/C=C(\C)CC/C=C(\C)CC/C=C(\C)CC/C=C(\C)CC/C=C(\C)CC/C=C(\C)CC/C=C(\C)CC/C=C(\C)CC/C=C(\C)CCC=C(C)C)=C(C)C1=O` [CoQ10, Co enzyme Q10], the “reversal of Lipitor toxicity” value in data set [3] is reported as “offers some protection, but it is not totally effective alone”.

`CC[C@H](C)C(=O)O[C@H]1C[C@H](O)C=C2C=C[C@H](C)[C@H](CC[C@@H](O)C[C@@H](O)CC(=O)O)[C@H]21` [Pravachol, Pravastatin sodium]: in data set [1] (setting [4]), the IC50 is less than 0.1 µg/mL.

Take `NCC1(CC(=O)O)CCCCC1` [neuronton]: in data set [1] (setting [5]), the toxicity in lymphocytes entry is “did not show toxicity”. As for `[Al]` [Aluminum], in data set [1] (setting [4]), the “Amount Required to Inhibit Growth by 50%” value is 0.005 mg/mL. For `CC1=C(/C=C/C(C)=C/C=C/C(C)=C/CO)C(C)(C)CCC1` [Retanol], in data set [1] (setting [4]), the IC50 is 0.5 µg/mL (≈ 1.75 µM).

Regarding `CCC(C)(C)C(=O)O[C@H]1C[C@@H](C)C=C2C=C[C@H](C)[C@H](CC[C@@H]3C[C@@H](O)CC(=O)O3)[C@H]21` [Zocor, Simvastatin], the IC50 in data set [1] (setting [4]) was less than 0.1 µg/mL.

With `Nc1ncnc2nc[nH]c12` [Adenine], the “concentration in culture medium that is toxic to lymphocytes” value in data set [2] (medium of Table 1, component varied) turned out to be 135 µg/mL. In the case of `CN(Cc1cnc2nc(N)nc(N)c2n1)c1ccc(C(=O)N[C@@H](CCC(=O)O)C(=O)O)cc1` [Methothrexate], the “Amount Required to Inhibit Growth by 50%” value in data set [1] (setting [4]) is less than 0.00002 mg/mL.

With `CN1C(=O)CN=C(c2ccccc2)c2cc(Cl)ccc21` [Diazepam], the IC50 in data set [1] was found to be 20 µg/mL (≈ 70.2 µM).
